From patent publication US4017606A, “Organic compounds and process” (The Upjohn Company, priority 1975, dated 1977)

Tests used:
[1] = Serum half life of cytosine arabinoside in beagle dogs with or without tetrahydrouridine; conditions: dog, in vivo
Description: (§1) This is especially reflected in a drop in the blood level of cytosine arabinoside, usually concomitant with an increase in uracil arabinoside. This destruction of cytosine arabinoside is brought about by a deaminase enzyme present in the blood and tissues of the animal. […] For example, deamination of cytosine arabinoside in rhesus monkey blood by liver deaminase was inhibited about 90% by the addition of one part of 4-hydroxyl-1-β-D-ribofuranosyl-tetrahydro-2(1H)-pyrimidinone (tetrahydrouridine) to 820 parts of cytosine arabinoside.

liver deaminase = assay: Deamination of cytosine arabinoside in rhesus monkey blood by liver deaminase; type: biochemical; conditions: one part of tetrahydrouridine to 820 parts of cytosine arabinoside
Description: as §1

[2] = target: deaminase enzymes (centrifuged 25 percent homogenate of normal human liver) (Homo sapiens, UniProt P32320); assay: Competitive efficacy (C.E.) test: inhibition of cytosine arabinoside deamination; conditions: 1.0 micromole tritiated Ca, pH 8.0, 37° C., 45 minutes
Description: The inhibition of cytosine arabinoside deamination by a compound is conveniently expressed in terms of its competitive efficacy (C.E.). The competitive efficacy of a compound is determined as follows:
Enzyme reaction mixture are prepared in 12-ml. centrifuge tubes in an ice bath. […] This is the standard reaction mixture. […] The tubes are then assayed for radioactive uracil arabinoside as described below, and the percent conversion of tritiated Ca to tritiated uracil arabinosie is calculated. A standard curve of the percent conversion vs. log10 of the initial ratio of untritiated Ca to tritiated Ca is plotted. This is the standard curve for the C.E. test.
Reaction mixture for C.E. test.
To determine the C.E. of a compound, known amounts of the compound are added to the above standard reaction mixture and the percent conversion of tritiated Ca to tritiated uracil arabinoside is measured. […] From this ratio and the amount of test compound in the assay reaction mixture, the C.E. is calculated. […]
After 45 minute incubation of the enzyme reaction mixtures, further reaction is stopped by the addition of one-half volume of iced, 15 percent trichloroacetic acid. […] Suitable quantities (4 microliters) of clear supernatant solution are co-chromatographed with a mixture of 40 millimicromoles each of non-tritiated carrier Ca and uracil arabinoside on Whatman No. 40 paper. […]

myelogenous leukemia = conditions: adults; 1 to 5 mg./kg. weekly intravenously or subcutaneously as maintenance; cited from earlier work

Sequence of deaminase enzymes (centrifuged 25 percent homogenate of normal human liver) (P32320 whole entry): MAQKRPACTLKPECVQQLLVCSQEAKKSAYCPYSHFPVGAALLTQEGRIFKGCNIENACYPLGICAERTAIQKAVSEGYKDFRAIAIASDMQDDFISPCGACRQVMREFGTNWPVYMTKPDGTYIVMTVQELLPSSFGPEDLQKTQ

With `O=C1NC(O)CCN1[C@@H]1O[C@H](CO)[C@@H](O)[C@H]1O` (single isomer, unassigned) [tetrahydrouridine, 4-hydroxy-1-β-D-ribofuranosyl-tetrahydro-2(1H)-pyrimidinone] the “half life of cytosine arabinoside in the serum” value ([1]; iv) was 2.27 to 3 h and the “inhibition of deamination of cytosine arabinoside” value (liver deaminase) was “about 90%”.

With `O=C1NCCCN1[C@@H]1O[C@H](CO)[C@@H](O)[C@H]1O` [E] the “Competitive Efficacy” value [2] was 200.

For `Nc1ccn([C@@H]2O[C@H](CO)[C@@H](O)[C@@H]2O)c(=O)n1` [cytosine arabinoside, 1-β-D-arabinofuranosylcytosine, reference compound], the half-life ([1]; control dogs without tetrahydrouridine, 50 mg./kg. cytosine arabinoside intravenous) is listed as 1.1 to 1.33 h and the “duration of remission of myelogenous leukemia (bone marrow response)” value (myelogenous leukemia) is listed as “more than 203 days”.
